Values quoted from earlier work, collected in US20140275170A1, “TASTE MASKING OF ANESTHETICS AND ANALGESICS” (priority 2013, published 2014).

Settings: maximum doses of 7 mg/kg (550 mg)

Cc1cccc(C)c1NC(=O)C1CCCCN1C (stereo not shown) [mepivacaine]
Adverse effect at maximum doses: without adverse effect
